These results are taken from paper PMC6757289, “Design and Characterization of SGK3-PROTAC1, an Isoform Specific SGK3 Kinase PROTAC Degrader” (ACS Chemical Biology, 2019).

Holding throughout (assay): kinase profiling panel
What all share (type): biochemical

One experiment addresses MST3 (Homo sapiens, UniProt Q9Y6E0). The note with it: read-out: % Activity Remaining. An excerpt:
(§1) Protein kinase profiling against a Dundee panel of 140 protein kinases was undertaken at the International Centre for Protein Kinase Profiling. The result for each kinase was presented as a mean kinase activity of the reaction taken in triplicate relative to a control sample treated with DMSO. Assay conditions and abbreviations are available at http://www.kinase-screen.mrc.ac.uk.

A further experiment has as its target PKA (Homo sapiens, UniProt P17612). The note with it: read-out: % Activity Remaining.
From the text: as §1

A further experiment has as its target T1, PINK (Tribolium castaneum, UniProt D6WMX4).
T1 sequence (D6WMX4 1-570): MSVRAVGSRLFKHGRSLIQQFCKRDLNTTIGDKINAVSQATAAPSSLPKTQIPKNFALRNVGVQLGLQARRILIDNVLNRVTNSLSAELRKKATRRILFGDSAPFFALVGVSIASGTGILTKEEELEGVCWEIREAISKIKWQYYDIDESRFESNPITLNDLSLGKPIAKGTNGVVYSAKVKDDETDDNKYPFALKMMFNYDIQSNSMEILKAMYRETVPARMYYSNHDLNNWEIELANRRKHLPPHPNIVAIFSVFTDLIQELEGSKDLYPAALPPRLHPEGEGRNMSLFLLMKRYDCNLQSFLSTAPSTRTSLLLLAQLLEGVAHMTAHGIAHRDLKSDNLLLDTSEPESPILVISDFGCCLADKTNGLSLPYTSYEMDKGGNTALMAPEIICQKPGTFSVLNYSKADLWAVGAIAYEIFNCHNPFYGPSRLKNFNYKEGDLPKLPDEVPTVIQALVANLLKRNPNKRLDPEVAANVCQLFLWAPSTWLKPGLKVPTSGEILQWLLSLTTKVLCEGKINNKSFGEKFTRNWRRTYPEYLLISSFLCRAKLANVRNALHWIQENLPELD
From the text: as §1

The next experiment deals with MNK1 (Homo sapiens, UniProt Q9BUB5). To be noted: read-out: % Activity Remaining.
From the text: as §1

For another experiment, the target named is CAMKK beta (Homo sapiens, UniProt Q96RR4). To be noted: read-out: % Activity Remaining.
From the text: as §1

The next experiment concerns the target T2, PDK1 (Homo sapiens, UniProt O15530).
T2 sequence (O15530 1-556): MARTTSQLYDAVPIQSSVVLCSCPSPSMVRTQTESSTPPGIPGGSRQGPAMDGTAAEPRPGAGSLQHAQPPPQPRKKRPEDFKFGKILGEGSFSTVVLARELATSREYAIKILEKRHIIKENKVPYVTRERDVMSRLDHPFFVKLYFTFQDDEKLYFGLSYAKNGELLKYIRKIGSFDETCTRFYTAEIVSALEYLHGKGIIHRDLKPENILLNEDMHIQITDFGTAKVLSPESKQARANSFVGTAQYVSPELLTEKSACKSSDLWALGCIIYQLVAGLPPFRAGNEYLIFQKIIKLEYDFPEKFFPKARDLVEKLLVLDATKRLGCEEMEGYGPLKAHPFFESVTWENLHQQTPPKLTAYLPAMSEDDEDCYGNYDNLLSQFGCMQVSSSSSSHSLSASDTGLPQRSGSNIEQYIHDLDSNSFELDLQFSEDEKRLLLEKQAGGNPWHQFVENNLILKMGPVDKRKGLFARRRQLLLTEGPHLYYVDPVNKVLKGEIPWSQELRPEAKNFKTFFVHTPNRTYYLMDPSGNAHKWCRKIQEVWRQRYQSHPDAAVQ
The note with it: read-out: % Activity Remaining.
From the text: as §1

The target of another experiment is T3, ULK2 (Homo sapiens, UniProt Q8IYT8).
T3 sequence (Q8IYT8 1-1036): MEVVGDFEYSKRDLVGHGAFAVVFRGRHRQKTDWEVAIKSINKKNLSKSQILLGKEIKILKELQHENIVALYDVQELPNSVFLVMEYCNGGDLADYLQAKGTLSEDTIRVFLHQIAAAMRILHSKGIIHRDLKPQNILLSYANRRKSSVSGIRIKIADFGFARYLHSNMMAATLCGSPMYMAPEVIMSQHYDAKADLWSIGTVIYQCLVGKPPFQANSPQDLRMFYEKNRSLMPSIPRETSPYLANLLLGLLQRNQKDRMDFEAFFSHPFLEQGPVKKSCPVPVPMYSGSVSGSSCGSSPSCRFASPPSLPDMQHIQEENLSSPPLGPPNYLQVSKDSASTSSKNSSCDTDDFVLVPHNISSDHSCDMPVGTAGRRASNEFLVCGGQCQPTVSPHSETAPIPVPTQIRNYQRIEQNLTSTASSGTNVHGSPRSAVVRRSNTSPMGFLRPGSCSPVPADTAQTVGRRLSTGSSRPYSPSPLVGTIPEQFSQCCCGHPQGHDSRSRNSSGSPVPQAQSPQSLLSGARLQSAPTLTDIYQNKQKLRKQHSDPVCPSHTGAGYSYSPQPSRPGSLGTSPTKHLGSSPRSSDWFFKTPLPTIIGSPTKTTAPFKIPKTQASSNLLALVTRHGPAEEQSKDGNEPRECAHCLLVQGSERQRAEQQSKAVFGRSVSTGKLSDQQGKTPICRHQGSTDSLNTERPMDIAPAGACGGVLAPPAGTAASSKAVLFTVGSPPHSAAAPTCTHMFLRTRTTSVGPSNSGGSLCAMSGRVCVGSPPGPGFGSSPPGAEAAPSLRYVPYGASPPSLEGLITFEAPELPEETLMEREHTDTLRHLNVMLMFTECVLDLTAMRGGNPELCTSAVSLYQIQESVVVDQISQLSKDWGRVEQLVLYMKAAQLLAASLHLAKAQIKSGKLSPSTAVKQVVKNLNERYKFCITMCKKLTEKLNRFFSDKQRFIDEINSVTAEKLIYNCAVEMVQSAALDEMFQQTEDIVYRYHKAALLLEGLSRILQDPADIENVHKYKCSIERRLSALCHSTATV
To be noted: read-out: % Activity Remaining.
From the text: as §1

Another experiment addresses EPH-A2 (Homo sapiens, UniProt P29317). The note with it: read-out: % Activity Remaining.
From the text: as §1

Molecules are shown by their SMILES. Like-named read-outs stand apart in the source and are kept apart here.

Sequence of CAMKK beta (Q96RR4 whole entry): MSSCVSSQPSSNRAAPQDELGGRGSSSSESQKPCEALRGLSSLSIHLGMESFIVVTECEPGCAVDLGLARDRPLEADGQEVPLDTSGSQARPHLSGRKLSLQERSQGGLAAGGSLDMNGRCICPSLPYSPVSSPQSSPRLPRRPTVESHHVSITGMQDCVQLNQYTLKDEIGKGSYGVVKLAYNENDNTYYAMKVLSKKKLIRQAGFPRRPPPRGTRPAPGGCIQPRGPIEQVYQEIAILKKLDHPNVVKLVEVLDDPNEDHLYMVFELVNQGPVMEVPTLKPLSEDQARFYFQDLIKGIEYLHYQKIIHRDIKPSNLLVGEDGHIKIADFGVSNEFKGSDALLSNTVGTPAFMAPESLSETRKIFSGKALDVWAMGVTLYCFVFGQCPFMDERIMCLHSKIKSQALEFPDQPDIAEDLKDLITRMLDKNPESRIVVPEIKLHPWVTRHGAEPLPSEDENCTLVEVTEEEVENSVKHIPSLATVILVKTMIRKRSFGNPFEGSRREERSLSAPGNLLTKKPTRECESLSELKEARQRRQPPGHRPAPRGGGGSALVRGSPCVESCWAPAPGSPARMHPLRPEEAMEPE
Sequence of MNK1 (Q9BUB5 whole entry): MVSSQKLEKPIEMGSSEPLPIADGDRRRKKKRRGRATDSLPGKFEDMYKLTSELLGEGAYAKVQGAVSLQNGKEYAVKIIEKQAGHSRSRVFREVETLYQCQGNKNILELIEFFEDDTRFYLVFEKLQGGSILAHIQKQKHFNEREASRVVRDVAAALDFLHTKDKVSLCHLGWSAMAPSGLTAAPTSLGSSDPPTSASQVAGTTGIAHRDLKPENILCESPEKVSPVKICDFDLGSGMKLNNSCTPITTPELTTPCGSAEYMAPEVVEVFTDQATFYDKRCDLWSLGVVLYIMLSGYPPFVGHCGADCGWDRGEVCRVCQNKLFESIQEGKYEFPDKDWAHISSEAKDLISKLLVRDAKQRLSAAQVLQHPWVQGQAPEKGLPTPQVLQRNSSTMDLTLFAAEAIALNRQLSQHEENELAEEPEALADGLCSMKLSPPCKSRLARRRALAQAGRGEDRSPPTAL
Sequence of MST3 (Q9Y6E0 whole entry): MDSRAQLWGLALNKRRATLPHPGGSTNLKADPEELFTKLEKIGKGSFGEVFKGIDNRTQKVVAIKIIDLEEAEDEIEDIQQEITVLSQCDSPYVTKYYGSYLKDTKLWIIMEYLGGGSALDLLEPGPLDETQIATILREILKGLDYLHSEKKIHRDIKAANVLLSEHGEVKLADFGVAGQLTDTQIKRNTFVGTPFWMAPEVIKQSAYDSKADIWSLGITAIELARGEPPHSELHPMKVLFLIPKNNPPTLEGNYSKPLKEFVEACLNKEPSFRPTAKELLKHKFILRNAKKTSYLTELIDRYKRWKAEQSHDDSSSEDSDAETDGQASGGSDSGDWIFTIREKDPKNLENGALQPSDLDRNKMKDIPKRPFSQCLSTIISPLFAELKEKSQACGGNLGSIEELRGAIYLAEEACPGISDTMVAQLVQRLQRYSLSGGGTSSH
Sequence of EPH-A2 (P29317 24-976): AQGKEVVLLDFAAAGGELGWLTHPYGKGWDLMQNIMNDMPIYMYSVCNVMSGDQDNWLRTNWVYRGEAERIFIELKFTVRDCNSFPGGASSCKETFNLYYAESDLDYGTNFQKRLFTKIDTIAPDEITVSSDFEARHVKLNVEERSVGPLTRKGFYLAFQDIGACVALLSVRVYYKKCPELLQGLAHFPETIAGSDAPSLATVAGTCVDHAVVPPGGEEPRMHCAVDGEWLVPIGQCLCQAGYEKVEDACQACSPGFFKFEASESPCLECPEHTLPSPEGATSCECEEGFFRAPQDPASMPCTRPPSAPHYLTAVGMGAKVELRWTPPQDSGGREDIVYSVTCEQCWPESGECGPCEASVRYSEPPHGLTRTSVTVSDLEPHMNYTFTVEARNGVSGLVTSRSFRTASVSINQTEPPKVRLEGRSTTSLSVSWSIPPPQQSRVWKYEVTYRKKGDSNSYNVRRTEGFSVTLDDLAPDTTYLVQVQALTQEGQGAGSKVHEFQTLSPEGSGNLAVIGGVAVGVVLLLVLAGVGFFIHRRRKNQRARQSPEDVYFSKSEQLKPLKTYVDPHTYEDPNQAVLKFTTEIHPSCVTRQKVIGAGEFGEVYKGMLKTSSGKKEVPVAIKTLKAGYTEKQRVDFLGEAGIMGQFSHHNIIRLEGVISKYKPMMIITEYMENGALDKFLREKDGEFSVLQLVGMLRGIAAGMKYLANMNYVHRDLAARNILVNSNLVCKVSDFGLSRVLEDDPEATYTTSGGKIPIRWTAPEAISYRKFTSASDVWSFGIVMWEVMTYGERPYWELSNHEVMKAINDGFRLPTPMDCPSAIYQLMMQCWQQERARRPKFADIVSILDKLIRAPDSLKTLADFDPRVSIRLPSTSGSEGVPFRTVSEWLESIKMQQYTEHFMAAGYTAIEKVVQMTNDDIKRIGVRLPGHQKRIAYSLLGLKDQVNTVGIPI

Turning to `COc1ccc(Cl)c(S(=O)(=O)Nc2ccc(-c3nc(OC[C@H]4CNCCO4)c4c(C)n[nH]c4n3)cc2)c1` [290-R, reference compound], the remaining activity at 1 µM at MST3 amounted to 57%; on PKA it was 85%; on PINK it was 99%; on MNK1, 87%; at CAMKK beta it was 77%; at PDK1, 117%. Also, the remaining activity at 1 µM on ULK2 amounted to 46%; at EPH-A2, 109%.

Take `Cc1ccc(F)c(S(=O)(=O)Nc2ccc(-c3nc(OC[C@H]4CNCCO4)c4cn[nH]c4n3)cc2)c1` [308-R, reference compound]: the remaining activity at 1 µM was determined as 79% at MST3; 106% on PKA; 119% at PINK; 77% at MNK1; 106% at CAMKK beta; 88% at PDK1. Also, the values for the remaining activity at 1 µM at ULK2 and on EPH-A2 were 59% and 113%, respectively.

For the compound `Cc1ccc(F)c(S(=O)(=O)Nc2ccc(-c3nc(OC[C@H]4CN(CCCCCCOCCOCCOCC(=O)N[C@H](C(=O)N5C[C@H](O)C[C@H]5C(=O)NCc5ccc(-c6scnc6C)cc5)C(C)(C)C)CCO4)c4cn[nH]c4n3)cc2)c1` [SGK3-PROTAC1], the remaining activity at 1 µM came out at 102% on MST3 (1 µM); 108% at PKA (1 µM); 108% at PINK; 108% on MNK1 (1 µM); 99% on CAMKK beta (1 µM); 99% at PDK1 (1 µM). Besides, the remaining activity at 1 µM on ULK2 (1 µM) was found to be 103%; at EPH-A2 (1 µM), 94%.

Regarding `Cc1ccc(F)c(S(=O)(=O)Nc2ccc(-c3nc(OC[C@H]4CN(CCCCCCOCCOCCOCC(=O)N[C@H](C(=O)N5C[C@@H](O)C[C@H]5C(=O)NCc5ccc(-c6scnc6C)cc5)C(C)(C)C)CCO4)c4cn[nH]c4n3)cc2)c1` [cisSGK3-PROTAC1], the remaining activity at 1 µM on MST3 (1 µM) amounted to 113%; on PKA (1 µM), 111%; at PINK, 109%; on MNK1 (1 µM), 103%; at CAMKK beta (1 µM) it was 108%; at PDK1 (1 µM), 87%. The remaining activity at 1 µM at ULK2 (1 µM) came to 117%; on EPH-A2 (1 µM) it was 104%.

A word on the remaining activity: it is the signal under treatment as a percentage of the control signal.
